In US8247372B2 (University of Southampton, priority 2006, dated 2012):

Key:
[1] = system: MCF7 breast, A2780 ovarian and PC3 and LNCAP prostate cancer cells; test: CyQuant cell proliferation assay (Activity Assay 2); format: cell-based; settings: Homo sapiens; cell line not given; read-out: Cell growth inhibition IC50
Description: Typically in this embodiment, said assay is performed using the CyQuant™ assay system (Moelcular Probes, Inc. USA).

[2] = system: HDAC (Hela Nuclear Extract); test: In vitro HDAC fluorescent activity assay (Activity Assay 1); settings: read-out: Inhibition of HDAC activity IC50, compounds reduced with DTT prior to analysis
Description: In vitro HDAC assays were performed using a HDAC fluorescent activity assay kit (Biomol, UK) according to the manufacturer's instructions. Compounds were reduced prior to analysis; 1 mM compound was reduced with 30 mM DTT in DMSO overnight at room temperature, protected from light. Reactions were then set up in a 96-well plate. […] Serial dilutions were set up for each compound. Reactions containing Hela extract only and assay buffer only were also set up. 25 μl diluted Fluor de LYS™ substrate (100-fold in assay buffer) was added to each reaction, which were then incubated at 37° C. for 1 hour. The reaction was stopped by addition of 50 μl Fluor de LYS™ Developer (20-fold dilution in assay buffer, plus TSA diluted 100-fold). […] Inhibition of in vitro HDAC activity was determined for mean values of duplicate samples as percentages relative to HeLa extract only reactions. IC50 values were calculated using GraphPad Prism software.

[3] = system: TNFα secretion from PBMCs; test: TNF-α immunoassay in LPS-stimulated PBMCs (Activity Assay 3); settings: normalized to 10 pg LPS alone (=100.00)
Description: TNF-α immunoassays were carried out using the Quantikine® Human TNF-α assay kit (R&D systems, Abingdon UK) according to the manufacturer's instructions. […] Compounds were added 1 hour later in volumes of 100 μl at 6× final concentration. Five hours later, lipopol ysaccharide (LSP, Sigma, Poole, UK) was added in a volume of 10 μl at 60× final concentration plates were mixed and left overnight at 37° C. 5% CO2. Plates were centrifuged and cell supernatant was transferred to a new plate. The Quantikine® assay reagents and standards were prepared according to the manufacturer instructions. The Quantikine® assay plate was prepared by adding 50 μl of assay dilutent RD1F into each well. This was followed by 200 μl of standard or 100 μl of calibrator dilutent plus 100 μl cell supernatant; this was incubated for 2 hours at room temperature (RT). The plate was washed using wash buffer 4 times. After the final wash the plate was tapped on clean paper towel to remove all residual buffer. 200 μl of TNF-α conjugate was added to each well and incubated for 1 hour at RT. The plate was then washed as before. The required amount of substrate solution was prepared by adding equal volumes of colour reagents A and B, protecting from light, 200 μl of this mix was added to each well and incubated for 20 mins at RT, protected from light. 50 μl of stop solution was added to each well in the same order as the substrate solution and the plate was read on a Biorad 680 96 well plate reader (Bio-Rad, Hemel Hempstead, UK) at 450 nm with λ correction at 570 nm. TNF-α levels were determined for mean values of duplicate samples using absorbance in nm, calibration zero values were subtracted from all results to correct for the addition of calibrator diluent in the assay.

| Compound | IC50 [1] | IC50 [2] | also measured |
| --- | --- | --- | --- |
| CC(C)C[C@H]1NC(=O)C[C@H]2/C=C/CCSSC[C@@H](NC1=O)C(=O)N[C@H](C(C)C)C(O)CC(=O)O2 (stereo in doubt) [Compound 7C, (E)-(1S,5R,6R,9S,20R)-5-Hydroxy-20-isobutyl-6-isopropyl-2-oxa-11,12-dithia-7,19,22-triaza-bicyclo[7.7.6]docos-15-ene-3,8,18,21-tetraone] | 0.23 nM | 11 nM |  |
| CC(C)[C@H]1NC(=O)[C@H]2CSSCC/C=C/[C@H](CC(=O)N[C@H](Cc3ccccc3)C(=O)N2)OC(=O)C[C@@H]1O [Compound 7A] | 0.07 nM | 3.3 nM | TNFα Secretion (Normalized*) ([3]; Cells + 10 pg LPS + 0.025 nM compound): 63.90; TNFα Secretion (Normalized*) ([3]; Cells + 10 pg LPS + 0.05 nM compound): 58.12; TNFα Secretion (Normalized*) ([3]; Cells + 10 pg LPS + 0.1 nM compound): 45.45; TNFα Secretion (Normalized*) ([3]; Cells + 10 pg LPS + 0.2 nM compound): 31.11; TNFα Secretion (Normalized*) ([3]; Cells + 10 pg LPS + 0.4 nM compound): 18.66; TNFα Secretion (Normalized*) ([3]; Cells + 0.025 nM compound, no LPS): −0.26; TNFα Secretion (Normalized*) ([3]; Cells + 0.05 nM compound, no LPS): −0.06; TNFα Secretion (Normalized*) ([3]; Cells + 0.1 nM compound, no LPS): −0.08; TNFα Secretion (Normalized*) ([3]; Cells + 0.2 nM compound, no LPS): −0.03; TNFα Secretion (Normalized*) ([3]; Cells + 0.4 nM compound, no LPS): 0.13 |
| CC(C)[C@H]1NC(=O)[C@H]2CSSCC/C=C/[C@H](CC(=O)N[C@H](Cc3cn(C(=O)OC(C)(C)C)c4ccccc34)C(=O)N2)OC(=O)C[C@@H]1O [Compound 7B, 3-((E)-(1S,5S,6R,9 S,20R)-5-Hydroxy-6-isopropyl-3,8,18,21-tetraoxo-2-oxa-11,12-dithia-7,19,22-triaza-bicyclo[7.7.6]docos-15-en-20-ylmethyl)-indole-1-carboxylic acid tert-butyl ester] | 0.65 nM | 436 nM |  |
| C[C@H]1NC(=O)C[C@H]2/C=C/CCSSC[C@@H](NC1=O)C(=O)N[C@H](Cc1ccccc1)[C@@H](O)CC(=O)O2 [Compound 7D, (E)-(1S,5S,6R,9S,20R)-6-Benzyl-5-hydroxy-20-methyl-2-oxa-11,12-dithia-7,19,22-triaza-bicyclo[7.7.6]docos-15-ene-3,8,18,21-tetraone] | 55 nM | 18 nM |  |
| O=C1C[C@H]2/C=C/CCSSC[C@@H](NC(=O)[C@@H](Cc3ccccc3)N1)C(=O)N[C@H](Cc1ccccc1)[C@@H](O)CC(=O)O2 [Compound 7E, (E)-(1S,5S,6R,9S,20R)-6,20-dibenzyl-5-hydroxy-2-oxa-11,12-dithia-7,19,22-triaza-bicyclo[7.7.6]docos-15-ene-3,8,18,21-tetraone] | 3.2 nM | 30 nM |  |
